Measured values published in patent US20150353495A1 (PORTOLA PHARMACEUTICALS, INC., priority 2010, published 2015).

Experiments:
Assay type in all cases: biochemical
TYK2 = target: T1, TYK2 (Homo sapiens, UniProt P29597); experiment: Z'-LYTE kinase assay TYK2
T1 construct: 5 μl of catalytic domain recombinant Kinase enzyme+Tyr peptide substrate (Invitrogen, CA); purchased Invitrogen
T1 sequence (P29597 897-1176 limits assumed): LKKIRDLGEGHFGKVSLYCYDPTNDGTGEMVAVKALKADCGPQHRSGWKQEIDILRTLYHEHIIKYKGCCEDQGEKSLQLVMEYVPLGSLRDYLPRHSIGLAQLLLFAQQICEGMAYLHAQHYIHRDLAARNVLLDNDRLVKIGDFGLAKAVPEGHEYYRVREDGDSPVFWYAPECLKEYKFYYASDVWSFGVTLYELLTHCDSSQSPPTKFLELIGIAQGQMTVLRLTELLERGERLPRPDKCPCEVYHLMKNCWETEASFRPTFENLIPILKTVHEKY
Procedure: JAK and TYK2 tyrosine phosphorylation activity is measured using the Z′-LYTE™ Technology developed by Invitrogen Corporation (Carlsbad, Calif.). For JAK1, JAK2 and JAK3 the Z′-LYTE™ Kinase Assay Kit-Tyr6 Peptide (part number PV4122) was used. For TYK2 the Z′-LYTE™ Kinase Assay Kit-Tyr6 Peptide (part number PV3192) was used. The Z′-LYTE™ biochemical assay employs a fluorescence resonance energy transfer (FRET) coupled-enzyme format and is based on the differential sensitivity of phosphorylated and non-phosphorylated peptides to proteolitic cleavage. The assay uses a synthetic peptide substrate that is labelled with a donor fluorophore (coumarin) and an acceptor fluorophore (fluorescein) that make up a FRET pair. In the primary reaction (the Kinase Reaction), the kinase transfers the γ-phosphate of ATP to a single tyrosine residue on the substrate, while the presence of a kinase inhibitor in the primary reaction suppresses phosphorylation. In the secondary reaction (the Development Reaction), a site-specific protease (the Development Reagent) is added. The development buffer quenches the Kinase Reaction, while the protease recognizes and cleaves non-phosphorylated Z′-LYTE™ peptide substrate. Cleavage disrupts FRET between the donor and acceptor fluorophores on the non-phosphoryleted substrate, while uncleaved, phosphorylated substrate maintains FRET.
To test the ability of candidate molecules to inhibit JAK tyrosine phosphorylation activity, molecules are reconstituted in 100% DMSO and serially diluted 1:10 in polypropylene v-bottom microtiter plates. The candidate molecules are then diluted 1:25 into kinase buffer and 2.5 μl transferred into duplicate wells of a 384 well low volume black microtiter assay plate (Corning, USA). The final DMSO concentration in the assay is 1%. The kinase reaction contains 2.5 μl of a candidate molecule, 5 μl of catalytic domain recombinant Kinase enzyme+Tyr peptide substrate (Invitrogen, CA) and 2.5 μl ATP (Invitrogen, CA). The kinase reaction is allowed to procede for 1 hour at room temperature. The protease reaction is initiated by the addition of 5 μl Development Reagent (Invitrogen, CA). After 1 hour incubation at room temperature the fluorescence is measured using a FlexStation plate reader (Molecular Devices, Sunnyvale, Calif.). The reader settings used are as follows: Fluorescence mode, endpoint, top read, excitation 400 nm, emission 445 nm and 520 nm, Auto Cutoff 435 nm and 515 nm, PMT sensitivity high, 6 reads per well Inhibition of JAK kinase activity is calculated as the percent phosphorylation of substrate in the presence of inhibitor compared to the percent phosphorylation of substrate in the absence of inhibitor. IC50's were derived using Xlfit 4.3 (IDBS, UK), 4 parameter logistic model 205: Y=(A+4B-A)/(1+((C/x)AD)))).

JAK1 = target: T2, JAK1 (Homo sapiens, UniProt P23458); experiment: Z'-LYTE kinase assay JAK1
T2 construct: 5 μl of catalytic domain recombinant Kinase enzyme+Tyr peptide substrate (Invitrogen, CA); purchased Invitrogen
Procedure, shortened: (§1)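 In duplicate wells, each test molecule (1% final DMSO) is incubated with recombinant kinase catalytic domain, Tyr6 peptide substrate and ATP for one hour at room temperature; a site-specific protease is then added for another hour before fluorescence reading.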

JAK2 = target: T3, JAK2 (Homo sapiens, UniProt O60674); experiment: Z'-LYTE kinase assay JAK2
T3 construct: 5 μl of catalytic domain recombinant Kinase enzyme+Tyr peptide substrate (Invitrogen, CA); purchased Invitrogen
Procedure, shortened: as §1

JAK3 = target: T4, JAK3 (Homo sapiens, UniProt P52333); experiment: Z'-LYTE kinase assay JAK3
T4 construct: 5 μl of catalytic domain recombinant Kinase enzyme+Tyr peptide substrate (Invitrogen, CA); purchased Invitrogen
Procedure, shortened: as §1

T4 sequence (P52333 822-1111 limits assumed): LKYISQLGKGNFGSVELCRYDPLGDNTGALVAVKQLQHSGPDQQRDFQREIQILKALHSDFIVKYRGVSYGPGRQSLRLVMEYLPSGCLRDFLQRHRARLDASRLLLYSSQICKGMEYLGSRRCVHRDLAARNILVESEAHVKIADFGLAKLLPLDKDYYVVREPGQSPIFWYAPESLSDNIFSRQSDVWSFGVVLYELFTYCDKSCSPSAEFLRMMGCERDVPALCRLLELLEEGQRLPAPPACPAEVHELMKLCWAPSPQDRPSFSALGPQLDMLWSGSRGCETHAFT
T2 sequence (P23458 875-1153 limits assumed): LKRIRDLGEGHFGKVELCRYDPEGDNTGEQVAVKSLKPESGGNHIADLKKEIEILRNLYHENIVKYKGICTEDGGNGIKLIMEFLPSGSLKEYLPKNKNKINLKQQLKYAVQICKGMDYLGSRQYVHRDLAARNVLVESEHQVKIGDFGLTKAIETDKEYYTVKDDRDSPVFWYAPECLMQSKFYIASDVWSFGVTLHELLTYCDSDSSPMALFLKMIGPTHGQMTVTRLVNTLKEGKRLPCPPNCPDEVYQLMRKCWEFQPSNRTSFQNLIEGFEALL
T3 sequence (O60674 849-1124 limits assumed): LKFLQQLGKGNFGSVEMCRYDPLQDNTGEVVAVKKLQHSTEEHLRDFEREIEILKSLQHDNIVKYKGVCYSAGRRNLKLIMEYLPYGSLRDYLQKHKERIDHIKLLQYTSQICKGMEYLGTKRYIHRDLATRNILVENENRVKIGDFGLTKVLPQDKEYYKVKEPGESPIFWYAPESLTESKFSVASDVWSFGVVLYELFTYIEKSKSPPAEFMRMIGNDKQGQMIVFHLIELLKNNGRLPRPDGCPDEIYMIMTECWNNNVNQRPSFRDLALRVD

Structure (SMILES) | IC50 (TYK2) [µM] | IC50 (JAK1) [µM] | IC50 (JAK2) [µM] | IC50 (JAK3) [µM]
NC(=O)c1cnc(Nc2ccc(Cl)cc2)cc1NCc1ccccc1 [Example 13, 4-(benzylamino)-6-(4-chlorophenylamino)nicotinamide] | > 1 | > 1 | > 1 | 0.1 to 1
COc1ccc(Nc2cc(Nc3ccc(N4CCOCC4)cc3)c(C(N)=O)cn2)cc1 [Example 17, 6-(4-methoxyphenylamino)-4-(4-morpholinophenylamino)nicotinamide] | > 1 | > 1 | > 1 | 0.1 to 1
CC(=O)Nc1cccc(Nc2nc(NC3CCCC3)c(C(N)=O)cc2F)c1 [Example 18, 6-(3-acetamidophenylamino)-2-(cyclopentylamino)-5-fluoronicotinamide] | 0.1 to 1 | > 1 | > 1 | > 1
CC(=O)Nc1cccc(Nc2nc(N[C@H](C)c3ccccc3)c(C(N)=O)cc2F)c1 [Example 20, (R)-6-(3-acetamidophenylamino)-5-fluoro-2-(1-phenylethylamino)nicotinamide] | > 1 | > 1 | > 1 | > 1
CC(=O)Nc1cccc(Nc2nc(N)c(C(N)=O)cc2F)c1 [Example 21, 6-(3-acetamidophenylamino)-2-amino-5-fluoronicotinamide] | > 1 | > 1 | > 1 | > 1
NC(=O)c1cc(F)c(Nc2cccc(-n3nccn3)c2)nc1NCc1ccccc1 [Example 23, 6-(3-(2H-1,2,3-triazol-2-yl)phenylamino)-2-(benzylamino)-5-fluoronicotinamide] | > 1 | > 1 | > 1 | > 1
NC(=O)c1cc(F)c(Nc2cccc(-n3nccn3)c2)nc1N [Example 24, 6-(3-(2H-1,2,3-triazol-2-yl)phenylamino)-2-amino-5-fluoronicotinamide] | > 1 | > 1 | > 1 | > 1
CC(=O)N1CCN(c2ccc(Nc3cc(NCCc4ccccc4)c(C(N)=O)cn3)cc2)CC1 [Example 29] | 0.1 to 1 | > 1 | 0.1 to 1 | 0.01 to 0.1
CN(C)C(=O)c1ccc(Nc2cc(NCc3c(F)cccc3F)c(C(N)=O)cn2)cc1 [Example 102, 4-(2,6-difluorobenzylamino)-6-(4-(dimethylcarbamoyl)phenylamino)nicotinamide] | 0.01 to 0.1 | 0.1 to 1 | 0.01 to 0.1 | 0.001 to 0.01
CC(=O)N1CCN(c2ccc(Nc3cc(NC4(c5ccccc5F)CC4)c(C(N)=O)cn3)cc2)CC1 [Example 130, 6-(4-(4-acetylpiperazin-1-yl)phenylamino)-4-(1-(2-fluorophenyl)cyclopropylamino)nicotinamide] | 0.1 to 1 | 0.1 to 1 | 0.01 to 0.1 | 0.001 to 0.01
CCC(=O)N1CCC(c2ccc(Nc3cc(NCc4cc(F)ccc4F)c(C(N)=O)cn3)cc2)CC1 [Example 149, 4-(2,5-difluorobenzylamino)-6-(4-(1-propionylpiperidin-4-yl)phenylamino)nicotinamide] | 0.1 to 1 | 0.1 to 1 | 0.01 to 0.1 | 0.001 to 0.01
CCC(=O)N1CCC(c2ccc(Nc3cc(NCc4cccnc4)c(C(N)=O)cn3)cc2)CC1 [Example 187, 6-(4-(1-propionylpiperidin-4-yl)phenylamino)-4-(pyridin-3-ylmethylamino)nicotinamide] | 0.1 to 1 | 0.1 to 1 | 0.1 to 1 | 0.01 to 0.1
CCC(=O)N1CCC(c2ccc(Nc3cc(NCc4cncc(F)c4)c(C(N)=O)cn3)cc2)CC1 [Example 188, 4-((5-fluoropyridin-3-yl)methylamino)-6-(4-(1-propionylpiperidin-4-yl)phenylamino)nicotinamide] | 0.1 to 1 | 0.1 to 1 | 0.01 to 0.1 | 0.001 to 0.01
CCC(=O)N1CCC(c2ccc(Nc3cc(NCC4(O)CCCC4)c(C(N)=O)cn3)cc2)CC1 [Example 193, 4-((1-hydroxycyclopentyl)methylamino)-6-(4-(1-propionylpiperidin-4-yl)phenylamino)nicotinamide] | 0.1 to 1 | > 1 | 0.1 to 1 | 0.01 to 0.1

Other lines, results leading:

IC50 (TYK2) [µM] | IC50 (JAK1) [µM] | IC50 (JAK2) [µM] | IC50 (JAK3) [µM] | Structure (SMILES)
> 1 | > 1 | > 1 | – | NC(=O)c1cnc(Nc2ccccc2)cc1NCc1ccccc1 [Example 9, 4-(benzylamino)-6-(phenylamino)nicotinamide]
0.1 to 1 | > 1 | 0.1 to 1 | 0.1 to 1 | Cc1cccc(Nc2cc(Nc3ccc(OCCN4CCCC4)cc3)ncc2C(N)=O)c1 [Example 14, 4-(3-toluidino)-6-(4-(2-(pyrrolidin-1-yl)ethoxy)phenylamino)nicotinamide]
> 1 | > 1 | > 1 | > 1 | CC(=O)Nc1cccc(Nc2nc(NCc3ccccc3)c(C(N)=O)cc2F)c1 [Example 19, 6-(3-acetamidophenylamino)-2-(benzylamino)-5-fluoronicotinamide]
> 1 | > 1 | > 1 | 0.1 to 1 | NC(=O)c1cc(F)c(Nc2cccc(-n3nccn3)c2)nc1NC1CCCC1 [Example 22, 6-(3-(2H-1,2,3-triazol-2-yl)phenylamino)-2-(cyclopentylamino)-5-fluoronicotinamide]
> 1 | > 1 | > 1 | > 1 | NC(=O)c1cc(F)c(Nc2ccc(OCCN3CCCC3)cc2)nc1NC1CCCC1 [Example 25, 2-(cyclopentylamino)-5-fluoro-6-(4-(2-(pyrrolidin-1-yl)ethoxy)phenylamino)nicotinamide]
> 1 | > 1 | > 1 | > 1 | NC(=O)c1cc(F)c(Nc2ccc(OCCN3CCCC3)cc2)nc1NCc1ccccc1 [Example 26, 2-(benzylamino)-5-fluoro-6-(4-(2-(pyrrolidin-1-yl)ethoxy)phenylamino)nicotinamide]
> 1 | > 1 | > 1 | > 1 | C[C@@H](Nc1nc(Nc2ccc(OCCN3CCCC3)cc2)c(F)cc1C(N)=O)c1ccccc1 [Example 27, (R)-5-fluoro-2-(1-phenylethylamino)-6-(4-(2-(pyrrolidin-1-yl)ethoxy)phenylamino)nicotinamide]
> 1 | > 1 | > 1 | 0.1 to 1 | CC(C)(C)OC(=O)N1CCC(c2ccc(Nc3cc(NCc4cccc(F)c4)c(C(N)=O)cn3)cc2)CC1 [Example 77, tert-butyl 4-(4-(5-carbamoyl-4-(3-fluorobenzylamino)pyridin-2-ylamino)phenyl)piperidine-1-carboxylate]
> 1 | > 1 | 0.1 to 1 | 0.001 to 0.01 | CC(=O)N1CCN(c2ccc(Nc3cc(NC4(c5ccccc5)CC4)c(C(N)=O)cn3)cc2)CC1 [Example 126, 6-(4-(4-acetylpiperazin-1-yl)phenylamino)-4-(1-phenylcyclopropylamino)nicotinamide]
> 1 | > 1 | > 1 | 0.01 to 0.1 | NC(=O)c1cnc(Nc2ccc(C3CCOCC3)cc2)cc1NCc1cccc(F)c1 [Example 143, 4-(3-fluorobenzylamino)-6-(4-(tetrahydro-2H-pyran-4-yl)phenylamino)nicotinamide]
